Data published in ChEMBL document CHEMBL1201862, “PubChem BioAssay data set” (2004).
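Growth conditions: 96-well plates. Treatment: test compound, 48 hours, 5 concentrations. Analysis: linear interpolation between bracketing concentrations; unreached endpoints set to highest concentration. Here, GI50 denotes the concentration required for 50% inhibition of growth.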 Activity calls are given as the source filed them. Cut-off read from the data, not from the text of the source: active = GI50 up to about 1.1 µM and inactive = higher.

Legend:
Assay in all cases: inhibition of tumour cell growth, NCI panel, 48 h
DLD-1 = test system: DLD-1
DMS-273 = test system: DMS-273
M19-MEL = test system: M19-MEL
LXFL 529 = test system: LXFL 529
DMS-114 = test system: DMS-114
XF498 = test system: XF498
HOP-18 = test system: HOP-18
RXF 631 = test system: RXF 631
SNB-78 = test system: SNB-78

Measured: GI50

CC(=O)OCc1cc(OC(C)=O)cnc1COC(C)=O
inactive: DLD-1 > 100 µM | DMS-273 > 100 µM | M19-MEL > 100 µM | LXFL 529 > 100 µM | DMS-114 > 100 µM | XF498 > 100 µM | HOP-18 > 100 µM | RXF 631 > 100 µM

COc1cc(Cl)cc(O)c(=O)c1OC
inactive: DLD-1 37.3 µM | SNB-78 16.9 µM | DMS-273 32.2 µM | M19-MEL 45.8 µM | LXFL 529 53.3 µM | DMS-114 24 µM | XF498 > 59.8 µM | HOP-18 71.6 µM

Cc1ccc(C2CC(c3ccco3)=NN2c2ccccc2)o1 (stereo unspecified)
inactive: SNB-78 > 100 µM | DMS-273 > 100 µM | M19-MEL > 100 µM | LXFL 529 > 100 µM | DMS-114 > 100 µM | XF498 > 100 µM

CC1(C)C(=O)/C=C\C(=O)C(C)(C)C2=CC=C(O2)C(C)(C)C(=O)/C=C\C(=O)C(C)(C)C2=CC=C1O2
inactive: SNB-78 > 100 µM | DMS-273 > 100 µM | M19-MEL > 100 µM | LXFL 529 > 100 µM | XF498 > 100 µM | HOP-18 > 100 µM

CN(C)CCNC(=O)c1ccc(C(=O)NCCN(C)C)c2nc3ccccc3cc12
active: DLD-1 0.516 µM | SNB-78 1.05 µM | DMS-273 0.538 µM | M19-MEL 0.8 µM | LXFL 529 0.729 µM | DMS-114 0.553 µM | RXF 631 1 µM
inactive: HOP-18 1.95 µM

CN1CCC(c2c(O)cc(O)c3c(=O)cc(-c4ccccc4Cl)oc23)C(O)C1 (stereo unspecified)
active: DLD-1 0.0368 µM | SNB-78 0.118 µM | DMS-273 0.0335 µM | LXFL 529 0.0769 µM | XF498 0.0492 µM | HOP-18 0.102 µM

CCOc1ccc(/C=C/c2cc(OC)c(OC)c(OC)c2)cc1
inactive: DLD-1 1.9 µM | M19-MEL 3.03 µM | DMS-114 1.36 µM | XF498 4.4 µM | HOP-18 > 75.2 µM
active: SNB-78 0.341 µM | DMS-273 0.548 µM | LXFL 529 0.809 µM | RXF 631 0.879 µM

COC(=O)C1CC(c2ccc(Cl)cc2)=NO1 (stereo unspecified)
inactive: DLD-1 > 100 µM | SNB-78 > 100 µM | DMS-273 > 100 µM | M19-MEL > 100 µM | LXFL 529 > 100 µM | DMS-114 > 100 µM | HOP-18 > 100 µM

COc1ccc(/C=C/c2onc3c(=O)n(C)nc(-c4ccccc4)c23)cc1
inactive: DLD-1 > 100 µM | DMS-273 > 100 µM | M19-MEL > 100 µM | LXFL 529 > 100 µM | DMS-114 > 100 µM | XF498 37 µM | HOP-18 > 100 µM

O=C1C2c3[nH]c4ccccc4c3C3CCCCCC3C2C(=O)N1c1ccccc1 (stereo unspecified)
inactive: DLD-1 58.2 µM | SNB-78 11.7 µM | DMS-273 37.8 µM | M19-MEL > 58.1 µM | LXFL 529 > 86.9 µM | DMS-114 > 49.9 µM | XF498 22.9 µM | HOP-18 19.5 µM

Cc1ccc(NCC(=O)N2CC(=O)Nc3ccccc32)cc1
inactive: DLD-1 > 100 µM | SNB-78 > 100 µM | DMS-273 > 100 µM | M19-MEL > 100 µM | LXFL 529 > 100 µM | DMS-114 > 100 µM | XF498 75.7 µM | HOP-18 > 100 µM

CCCNCC(=O)O[C@]1(CC)C(=O)OCc2c1cc1n(c2=O)Cc2cc3ccccc3nc2-1
active: DMS-273 < 0.01 µM | M19-MEL 0.194 µM | DMS-114 0.0187 µM | XF498 < 0.01 µM | HOP-18 0.123 µM
inactive: DLD-1 2.07 µM | LXFL 529 1.42 µM

CCCCCCCCCCCC[N+]12CC[N+](CCN)(CC1)CC2
inactive: DLD-1 82.8 µM | SNB-78 77.8 µM | DMS-273 14.8 µM | M19-MEL > 100 µM | LXFL 529 81.7 µM | DMS-114 34.1 µM | XF498 > 100 µM | HOP-18 75.3 µM | RXF 631 > 100 µM

Cc1cc(C)nc(NS(=O)(=O)c2ccc(Nc3c4ccc(Cl)cc4nc4c(C(=O)NCCN(C)C)cccc34)cc2)n1
inactive: DLD-1 > 100 µM | SNB-78 > 100 µM | DMS-273 > 100 µM | M19-MEL > 100 µM | LXFL 529 > 100 µM | DMS-114 > 100 µM | XF498 > 100 µM | RXF 631 > 100 µM

C/C(CN1C(=O)c2ccccc2C1=O)=N\NS(=O)(=O)c1ccc2ccccc2c1
inactive: DLD-1 > 100 µM | SNB-78 > 100 µM | DMS-273 > 100 µM | M19-MEL > 100 µM | LXFL 529 > 100 µM | DMS-114 > 100 µM | HOP-18 > 100 µM

CCCCN(CCCC)CCCCNc1c(C)cnc2cc(Cl)ccc12
inactive: SNB-78 55.3 µM | M19-MEL 32.5 µM | LXFL 529 31 µM | DMS-114 15.9 µM | XF498 14.4 µM | HOP-18 23 µM | RXF 631 13.7 µM

COC(=O)c1cc(O)ccc1O [METHYL 2,5-DIHYDROXYBENZOATE]
inactive: SNB-78 > 100 µM | DMS-273 > 100 µM | M19-MEL > 100 µM | LXFL 529 > 100 µM | DMS-114 > 100 µM | XF498 > 100 µM | RXF 631 > 100 µM

C/N=C(\NC(=S)N(C)C)N(C)C
inactive: DLD-1 > 100 µM | SNB-78 > 100 µM | DMS-273 > 100 µM | M19-MEL > 100 µM | LXFL 529 > 100 µM | DMS-114 > 100 µM | XF498 > 100 µM | HOP-18 > 100 µM | RXF 631 > 100 µM

COC1=CC(=O)C2C(C1=O)C(c1ccc(OC)c(OC)c1)[C@H]2C (stereo partly specified)
inactive: DLD-1 17.1 µM | SNB-78 > 100 µM | DMS-273 23.7 µM | M19-MEL 20.8 µM | LXFL 529 17.3 µM | DMS-114 19.5 µM | XF498 16.2 µM | HOP-18 20.7 µM | RXF 631 16.4 µM

COCc1c(CO)cnc(C)c1OC1OC(CO)C(O)C(O)C1O (stereo unspecified)
inactive: DLD-1 > 100 µM | DMS-273 > 100 µM | M19-MEL > 100 µM | LXFL 529 > 100 µM | DMS-114 > 100 µM | XF498 > 100 µM

O=C1c2ccccc2C(=O)c2c1ccc1conc21
inactive: DLD-1 2.55 µM | SNB-78 2.84 µM | DMS-273 3.44 µM | M19-MEL 1.32 µM | LXFL 529 1.8 µM | DMS-114 1.83 µM | HOP-18 13.4 µM | RXF 631 2.85 µM

Fc1nc(F)nc(-c2c3ccccc3c3n2CCS3)n1
inactive: DLD-1 57.8 µM | SNB-78 23 µM | DMS-273 76.2 µM | M19-MEL > 100 µM | LXFL 529 58.1 µM | DMS-114 > 100 µM | XF498 23.4 µM

C1=CC=C2NCCCCCCC/N=C3/C=CC=CC=C3NCCCCCCC/N=C\2C=C1
inactive: DLD-1 49.4 µM | DMS-273 19.1 µM | M19-MEL > 100 µM | LXFL 529 > 100 µM | XF498 > 100 µM | RXF 631 13 µM

NCCCCCS(=O)(=O)O
inactive: DLD-1 > 100 µM | SNB-78 > 100 µM | DMS-273 > 100 µM | M19-MEL > 100 µM | LXFL 529 > 100 µM | DMS-114 > 100 µM | HOP-18 > 100 µM | RXF 631 > 100 µM

Cn1c2ccccc2c(=O)c2c([N+](=O)[O-])ccc(NCCN)c21
inactive: SNB-78 14.5 µM | DMS-273 3.86 µM | M19-MEL 13 µM | LXFL 529 8.63 µM | DMS-114 11.5 µM | XF498 15.1 µM | HOP-18 13.3 µM
